Results published in patent US20200017467A1, “NOVEL TRIAZOLE DERIVATIVES” (BAYER CROPSCIENCE AKTIENGESELLSCHAFT, priority 2017, published 2020).

Tests used:
Septoria tritici [1] = test: In vivo preventive test on Septoria tritici (leaf spot on wheat); conditions: Zymoseptoria tritici, 576 h, 500 ppm of active ingredient, preventive spray, evaluated 24 days after inoculation, read-out: efficacy
Protocol: Example B: In Vivo Preventive Test on Septoria tritici (Leaf Spot on Wheat) [table] The active ingredients were made soluble and homogenized in a mixture of dimethyl sulfoxide/acetone//Tween® 80 and then diluted in water to the desired concentration. Young plants of wheat were treated by spraying the active ingredient prepared as described above. Control plants were treated only with an aqueous solution of acetone/dimethyl sulfoxide/Tween® 80. After 24 hours, the plants were contaminated by spraying the leaves with an aqueous suspension of Septoria tritici spores. The contaminated wheat plants were incubated for 72 hours at 18° C. and at 100% relative humidity and then for 21 days at 20° C. and at 90% relative humidity. The test was evaluated 24 days after the inoculation. 0% means an efficacy which corresponds to that of the control plants while an efficacy of 100% means that no disease was observed.

Sphaerotheca fuliginea = test: In vivo preventive test on Sphaerotheca fuliginea (powdery mildew on cucurbits); conditions: Podosphaera fuliginea, 360 h; 500 ppm of active ingredient; gherkin, preventive spray, evaluated 15 days after inoculation; read-out: efficacy
Protocol: Example C: In Vivo Preventive Test on Sphaerotheca fuliginea (Powdery Mildew on Cucurbits) [table] The active ingredients were made soluble and homogenized in a mixture of dimethyl sulfoxide/acetone//Tween® 80 and then diluted in water to the desired concentration. Young plants of gherkin were treated by spraying the active ingredient prepared as described above. Control plants were treated only with an aqueous solution of acetone/dimethyl sulfoxide/Tween® 80. After 24 hours, the plants were contaminated by spraying the leaves with an aqueous suspension of Sphaerotheca fuliginea spores. The contaminated gherkin plants were incubated for 72 hours at 18° C. and at 100% relative humidity and then for 12 days at 20° C. and at 70-80% relative humidity. The test was evaluated 15 days after the inoculation. 0% means an efficacy which corresponds to that of the control plants while an efficacy of 100% means that no disease was observed.

Septoria tritici [2] = test: Example F-A: in vivo preventive Septoria tritici test (wheat); conditions: Zymoseptoria tritici, 504 h, evaluated 21 days after inoculation, read-out: Efficacy in % Example F-A
Protocol: Example F: In Vivo Septoria tritici Test (Wheat); Comparison of Pyridinyloxy-Pyridyl Compounds According to the Invention Vs. Compounds Known from WO-A 2010/146116 [table] To produce a suitable preparation of active compound, 1 part by weight of active compound or active compound combination is mixed with the stated amounts of solvent and emulsifier, and the concentrate is diluted with water to the desired concentration. Example F-A: In Vivo Preventive Septoria tritici Test (Wheat) To test for preventive activity, young plants are sprayed with the preparation of active compound or active compound combination at the stated rate of application. After the spray coating has been dried, the plants are sprayed with a spore suspension of Septoria tritici. The plants remain for 48 hours in an incubation cabinet at approximately 20° C. and a relative atmospheric humidity of approximately 100% and afterwards for 60 hours at approximately 15° C. in a translucent incubation cabinet at a relative atmospheric humidity of approximately 100%. The plants are placed in the greenhouse at a temperature of approximately 15° C. and a relative atmospheric humidity of approximately 80%. The test is evaluated 21 days after the inoculation. 0% means an efficacy which corresponds to that of the untreated control, while an efficacy of 100% means that no disease is observed.

Septoria tritici [3] = test: Example F-B: in vivo curative Septoria tritici test (wheat); conditions: Zymoseptoria tritici, 504 h, sprayed 48 hours after inoculation, evaluated 21 days after inoculation, read-out: Efficacy in % Example F-B
Protocol: Example F: In Vivo Septoria tritici Test (Wheat); Comparison of Pyridinyloxy-Pyridyl Compounds According to the Invention Vs. Compounds Known from WO-A 2010/146116 [table] To produce a suitable preparation of active compound, 1 part by weight of active compound or active compound combination is mixed with the stated amounts of solvent and emulsifier, and the concentrate is diluted with water to the desired concentration. Example F-B: In Vivo Curative Septoria tritici Test (Wheat) To test for curative activity, young plants are inoculated with a spore suspension of Septoria tritici and remain for 48 hours in an incubation cabinet at a temperature of approximately 20° C. and a relative atmospheric humidity of approximately 100%. 48 hours after the incubation, the plants are sprayed with the preparation of active compound or active compound combination at the stated rate of application. After application the plants remain for 60 hours at a temperature of approximately 15° C. in a translucent incubation cabinet at a relative atmospheric humidity of approximately 100%. Afterwards, the plants are placed in the greenhouse at a temperature of approximately 15° C. and a relative atmospheric humidity of approximately 80%. The test is evaluated 21 days after the inoculation. 0% means an efficacy which corresponds to that of the untreated control, while an efficacy of 100% means that no disease is observed.

Septoria tritici [4] = test: Example F-C: in vivo 5 days preventive Septoria tritici test (wheat); conditions: Zymoseptoria tritici, 504 h, inoculated 5 days after spraying, evaluated 21 days after inoculation, read-out: Efficacy in % Example F-C
Protocol: Example F: In Vivo Septoria tritici Test (Wheat); Comparison of Pyridinyloxy-Pyridyl Compounds According to the Invention Vs. Compounds Known from WO-A 2010/146116 [table] To produce a suitable preparation of active compound, 1 part by weight of active compound or active compound combination is mixed with the stated amounts of solvent and emulsifier, and the concentrate is diluted with water to the desired concentration. Example F-C: In Vivo 5 Days Preventive Septoria tritici Test (Wheat) To test for preventive and long-lasting activity, young plants are sprayed with a preparation of active compound or active compound combination at the stated rate of application. After the spray coating has been dried, the plants are placed in the greenhouse at a temperature of approximately 15° C. and a relative atmospheric humidity of approximately 80%. 5 days later the plants are sprayed with a spore suspension of Septoria tritici. The plants remain for 48 hours in an incubation cabinet at approximately 20° C. and a relative atmospheric humidity of approximately 100% and afterwards for 60 hours at approximately 15° C. in a translucent incubation cabinet at a relative atmospheric humidity of approximately 100%. Then the plants are placed in the greenhouse at a temperature of approximately 15° C. and a relative atmospheric humidity of approximately 80%. The test is evaluated 21 days after the inoculation. 0% means an efficacy which corresponds to that of the untreated control, while an efficacy of 100% means that no disease is observed.

Row | SMILES | pest or weed control at 500 ppm (Septoria tritici [1]) | pest or weed control at 500 ppm (Sphaerotheca fuliginea) | pest or weed control at 500 ppm (Septoria tritici [2]) | pest or weed control at 500 ppm (Septoria tritici [3]) | pest or weed control at 500 ppm (Septoria tritici [4])
1 | CC(O)(Cn1cncn1)c1ccc(Oc2ccc(C(F)(F)F)nc2)nc1C(F)(F)F (stereo not drawn) [I-02, 1-(1,2,4-triazol-1-yl)-2-[2-(trifluoromethyl)-6-[[6-(trifluoromethyl)-3-pyridyl]oxy]-3-pyridyl]propan-2-ol] | 90 to 100% | 90 to 100% | 100% | 100% | 100%
2 | CC(O)(Cn1cncn1)c1cnc(Oc2ccc(Cl)nc2)cc1C(F)(F)F (stereo not drawn) [I-06, 2-[6-[(6-chloro-3-pyridyl)oxy]-4-(trifluoromethyl)-3-pyridyl]-1-(1,2,4-triazol-1-yl)propan-2-ol] | 90 to 100% | 90 to 100% | 100% | 100% | 88%
3 | OC(Cn1cncn1)c1cnc(Oc2ccc(Br)nc2)cc1C(F)(F)F (stereo not drawn) [I-13] | 90 to 100% | 90 to 100% | 100% | 60% | 100%
4 | OC(Cn1cncn1)c1ccc(Oc2ccc(C(F)(F)F)nc2)nc1C(F)(F)F (stereo not drawn) [I-09] | 90 to 100% | 90 to 100% | 100% | 86% | 100%
5 | CC(O)(Cn1cncn1)c1ccc(Oc2ccc(Cl)nc2)nc1C(F)(F)F (stereo not drawn) [I-05] | 90 to 100% | 90 to 100% | 100% | 100% | 63%
6 | CC(O)(Cn1cncn1)c1ccc(Oc2ccc(Br)nc2)nc1C(F)(F)F (stereo not drawn) [I-01, 2-[6-[(6-bromo-3-pyridyl)oxy]-2-(trifluoromethyl)-3-pyridyl]-1-(1,2,4-triazol-1-yl)propan-2-ol] | 90 to 100% | 90 to 100% | 100% | 93% | 100%
7 | CC(O)(Cn1cncn1)c1cnc(Oc2ccc(Br)nc2)cc1C(F)(F)F (stereo not drawn) [I-07] | 90 to 100% | 90 to 100% | 100% | 70% | 100%
8 | CC(O)(Cn1cncn1)c1cnc(Oc2ccc(C(F)(F)F)nc2)cc1C(F)(F)F (stereo not drawn) [I-04] | 90 to 100% | 90 to 100% | 100% | 100% | 
